Each compound was assayed against BCL2 (Homo sapiens (Human), UniProt P10415) (assay: Molecular level activity test of anti-apoptotic protein BCL2 (HTRF, binding to Bim peptide)). Details: HTRF, binding of BCL2 to Bim peptide; read-out: BCL2 nM (inhibitory activity, IC50).
Outline: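 Compound (2% DMSO) was mixed with His-tagged recombinant BCL2 and biotinylated Bim peptide for 1 h. Detection used anti-His antibody plus streptavidin-XL665 for 4 h at room temperature, read by time-resolved fluorescence.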

Chain of BCL2 (P10415 whole entry): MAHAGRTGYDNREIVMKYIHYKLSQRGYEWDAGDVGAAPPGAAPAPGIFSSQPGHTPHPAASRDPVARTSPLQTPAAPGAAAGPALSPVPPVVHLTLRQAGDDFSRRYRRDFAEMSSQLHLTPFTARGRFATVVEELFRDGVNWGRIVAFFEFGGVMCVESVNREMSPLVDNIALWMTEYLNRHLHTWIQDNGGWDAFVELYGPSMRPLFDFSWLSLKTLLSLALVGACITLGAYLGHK

IC50, < 10 nM:
COc1ccc(CN2CCN(C3CC4(CCN(c5ccc(C(=O)NS(=O)(=O)c6cc([N+](=O)[O-])c(NC[C@H]7CC[C@](C)(O)CC7)c7[nH]cnc67)c(N6CCCOc7nc8[nH]ccc8cc76)c5)CC4)C3)C(c3ccccc3C(C)C)C2)cc1 (stereo partly shown) [compound 090, 2-(3,4-dihydro-2H-pyrrolo[3′,2′:5,6]pyridino[2,3-b][1,4]oxazacyclohept-1 (7H)-yl)-N-((7-((((1r,4r)-4-hydroxy-4-methylcyclohexyl)methyl)amino)-6-nitro-1H-benzo[d]imidazol-4-yl)sulfonyl)-4-(2-(2-(2-isopropylphenyl)-4-(4-methoxybenzyl)piperazin-1-yl)-7-azaspiro[3.5]non-7-yl)benzamide]
COc1ccc(CN2CCN(C3CC4(C3)CN(c3cc(Oc5cnc6[nH]ccc6c5)c(C(=O)NS(=O)(=O)c5cc([N+](=O)[O-])c(NCC6(F)CCN(C(C)C)CC6)c6[nH]cnc56)cc3F)C4)C(c3ccccc3C(C)C)C2)cc1 (stereo not shown) [compound 074, 2-((1H-pyrrolo[2,3-b]pyrid-5-yl)oxy)-5-fluoro-N-((7-(((4-fluoro-1-isopropylpiperid-4-yl)methyl)amino)-6-nitro-1H-benzo[d]imidazol-4-yl)sulfonyl)-4-(6-(2-(2-isopropylphenyl)-4-(4-methoxybenzyl)piperazin-1-yl)-2-azaspiro[3.3]hept-2-yl)benzamide]
COc1ccc(CN2CCN(C3CC4(CCN(c5cc(Oc6cnc7[nH]ccc7c6)c(C(=O)NS(=O)(=O)c6cc([N+](=O)[O-])c(NCC7(F)CCOCC7)c7c6ncc(=O)n7C)cc5F)CC4)C3)[C@H](c3ccccc3C(C)C)C2)cc1
CC(C)c1ccccc1C1CN(C2CCOCC2)CCN1C1CC2(CCN(c3cc(Oc4cnc5[nH]ccc5c4)c(C(=O)NS(=O)(=O)c4ccc(NC[C@H]5CC[C@](C)(O)CC5)c([N+](=O)[O-])c4)cn3)CC2)C1 (stereo partly shown) [compound 051, 4-((1H-pyrrolo[2,3-b]pyrid-5-yl)oxy)-N-((4-((((1r,4r)-4-hydroxy-4-methylcyclohexyl)methyl)amino)-3-nitrophenyl)sulfonyl)-6-(2-(2-(2-isopropylphenyl)-4-(tetrahydro-2H-pyran-4-yl)piperazin-1-yl)-7-azaspiro[3.5]non-7-yl) nicotinamide]
COc1ccc(CN2CCN(C3CC4(CCN(c5ccc(C(=O)NS(=O)(=O)c6cc([N+](=O)[O-])c(NC[C@H]7CC[C@](C)(O)CC7)c7[nH]cnc67)c(N6CCOc7nc8[nH]ccc8cc76)c5)CC4)C3)C(c3ccccc3C(C)C)C2)cc1 (stereo partly shown) [compound 089, 2-(2,3-dihydropyrrolo[3′,2′:5,6]pyridino[2,3-b][1,4]oxazin-1 (6H)-yl)-N-((7-((((1r,4r)-4-hydroxy-4-methylcyclohexyl)methyl)amino)-6-nitro-1H-benzo[d]imidazol-4-yl)sulfonyl)-4-(2-(2-(2-isopropylphenyl)-4-(4-methoxybenzyl)piperazin-1-yl)-7-azaspiro[3.5]non-7-yl)benzamide]
COc1ccc(CN2CCN(C3CC4(CCN(c5cc(Oc6cnc7[nH]ccc7c6)c(C(=O)NS(=O)(=O)c6cc([N+](=O)[O-])c(NC[C@H]7COCCO7)c7c6OCO7)cn5)CC4)C3)[C@H](c3ccccc3C(C)C)C2)cc1 [compound 151, N-((7-((((S)-1,4-dioxan-2-yl)methyl)amino)-6-nitrobenzo[d][1,3]dioxocyclopent-4-yl)sulfonyl)-4-((1H-pyrrolo[2,3-b]pyrid-5-yl)ox)-6-(2-((R)-2-(2-isopropylphenyl)-4-(4-methoxybenzyl)piperazin-1-yl)-7-azaspiro[3.5]non-7-yl) nicotinamide]
COc1ccc(CN2CCN(C3CC4(CCN(c5cc(Oc6cnc7[nH]ccc7c6)c(C(=O)NS(=O)(=O)c6cc([N+](=O)[O-])c(NCC7(F)CCOCC7)c7ocnc67)cn5)CC4)C3)[C@H](c3ccccc3C(C)C)C2)cc1 [compound 133, (R)-4-((1H-pyrrolo[2,3-b]pyridine-5-yl)oxy)-N-((7-(((4-fluorotetrahydro-2H-pyran-4-yl)methyl)amino)-6-nitrobenzo[d]oxazol-4-yl)sulfonyl)-6-(2-(2-(2-isopropylphenyl)-4-(4-methoxybenzyl)piperazin-1-yl)-7-azaspiro[3.5]non-7-yl) nicotinamide]
COc1ccc(CN2CCN(C3CC4(CCN(c5cc(Oc6cnc7[nH]ccc7c6)c(C(=O)NS(=O)(=O)c6cc([N+](=O)[O-])c(NCC7CCOCC7)c7scnc67)cc5F)CC4)C3)[C@H](c3ccccc3C(C)C)C2)cc1 [compound 122, (R)-2-((1H-pyrrolo[2,3-b]pyrid-5-yl)oxy)-5-fluoro-4-(2-(2-(2-isopropylphenyl)-4-(4-methoxybenzyl)piperazin-1-yl)-7-azaspiro[3.5]non-7-yl)-N-((6-nitro-7-(((tetrahydro-2H-pyran-4-yl)methyl)amino)benzo[d]thiazol-4-yl)sulfonyl)benzamide]
CC(=O)Nc1ccc(CN2CCN(C3CC4(CCN(c5cc(Oc6cnc7[nH]ccc7c6)c(C(=O)NS(=O)(=O)c6ccc(NCC7(F)CCOCC7)c([N+](=O)[O-])c6)cc5F)CC4)C3)[C@H](c3ccccc3C(C)C)C2)cc1 [compound 200, (R)-2-((1H-pyrrolo[2,3-b]pyrid-5-yl)oxy)-4-(2-(4-(4-acetylaminobenzyl)-2-(2-isopropylphenyl)piperazin-1-yl)-7-azaspiro[3.5]non-7-yl)-5-fluoro-N-((4-(((4-fluorotetrahydro-2H-pyran-4-yl)methyl)amino)-3-nitrophenyl)sulfonyl)benzamide]
COc1ccc(CN2CCN(C3CC4(CCN(c5cc(Oc6cnc7[nH]ccc7c6)c(C(=O)NS(=O)(=O)c6ccc(NC[C@H]7CC[C@](C)(O)CC7)c([N+](=O)[O-])c6)cc5F)CC4)C3)[C@H](c3ccccc3C(C)C)C2)cc1OC [compound 221, 2-((1H-pyrrolo[2,3-b]pyrid-5-yl)oxy)-4-(2-((R)-4-(3,4-dimethoxybenzyl)-2-(2-isopropylphenyl)piperazin-1-yl)-7-azaspiro[3.5]non-7-yl)-5-fluoro-N-((4-((((1r, 4r)-4-hydroxy-4-methylcyclohexyl)methyl)amino)-3-nitrophenyl)sulfonyl)benzamide]
COc1ccc(CN2CCN(C3CC4(CCN(c5cc(Oc6cnc7[nH]ccc7c6)c(C(=O)NS(=O)(=O)c6cc([N+](=O)[O-])c(NCC7(F)CCOCC7)c7ccoc67)cc5F)CC4)C3)[C@H](c3ccccc3C(C)C)C2)cc1 [compound 143, (R)-2-((1H-pyrrolo[2,3-b]pyrid-5-yl)oxy)-5-fluoro-N-((4-(((4-fluorotetrahydro-2H-pyran-4-yl)methyl)amino)-5-nitrobenzofuran-7-yl)sulfonyl)-4-(2-(2-(2-isopropylphenyl)-4-(4-methoxybenzyl)piperazin-1-yl)-7-azaspiro[3.5]non-7-yl)benzamide]
COc1cc(CN2CCN(C3CC4(CCN(c5ccc(C(=O)NS(=O)(=O)c6cc([N+](=O)[O-])c(NC[C@H]7CC[C@](C)(O)CC7)c7c6OCO7)c(Oc6cnc7[nH]ccc7c6)c5)CC4)C3)[C@H](c3ccccc3C(C)C)C2)cc2cc(C)oc12 [compound 180]
CC(C)c1ccccc1[C@@H]1CCCN1C1CC2(CCN(c3cc(N4CCOc5nc6[nH]ccc6cc54)c(C(=O)NS(=O)(=O)c4cc([N+](=O)[O-])c(NCC5(F)CCN(C(C)C)CC5)c5[nH]cnc45)cc3F)CC2)C1 [compound 084, (S)-2-(2,3-dihydropyrrolo[3′,2′:5,6]pyridino[2,3-b][1,4]oxazin-1 (6H)-yl)-5-fluoro-N-((7-(((4-fluoro-1-isopropylpiperid-4-yl)methyl)amino)-6-nitro-1H-benzo[d]imidazol-4-yl)sulfonyl)-4-(2-(2-(2-isopropylphenyl)pyrrolidin-1-yl)-7-azaspiro[3.5]non-7-yl)benzamide]
COc1ccc(CN2CCN(C3CC4(CCN(c5ccc(C(=O)NS(=O)(=O)c6cc([N+](=O)[O-])c(NCC7(F)CCOCC7)c7[nH]cnc67)c(N6CCCOc7nc8[nH]ccc8cc76)c5)CC4)C3)C(c3ccccc3C(C)C)C2)cc1 (stereo not shown) [compound 094, 2-(3,4-dihydro-2H-pyrrolo[3′,2′:5,6]pyridino[2,3-b][1,4]oxazacycloheptane-1 (7H)-yl)-N-((7-(((4-fluorotetrahydro-2H-pyran-4-yl)methyl)amino)-6-nitro-1H-benzo[d]imidazol-4-yl)sulfonyl)-4-(2-(2-(2-isopropylphenyl)-4-(4-methoxybenzyl)piperazin-1-yl)-7-azaspiro[3.5]non-7-yl)benzamide]
COc1ccc(CN2CCN(C3CC4(CCN(c5cc(Oc6cnc7[nH]ccc7c6)c(C(=O)NS(=O)(=O)c6cc([N+](=O)[O-])c(NC[C@H]7CC[C@](C)(O)CC7)c7occc67)cc5F)CC4)C3)[C@H](c3ccccc3C(C)C)C2)cc1 [compound 115, 2-((1H-pyrrolo[2,3-b]pyrid-5-yl)oxy)-5-fluoro-N-((7-((((1r, 4r)-4-hydroxy-4-methylcyclohexyl)methyl)amino)-6-nitrobenzofuran-4-yl)sulfonyl)-4-(2-((R)-2-(2-isopropylphenyl)-4-(4-methoxybenzyl)piperazin-1-yl)-7-azaspiro[3.5]non-7-yl)benzamide]
COc1ccc(CN2CCN(C3CC4(CCN(c5cc(Oc6cnc7[nH]ccc7c6)c(C(=O)NS(=O)(=O)c6ccc(NC[C@H]7CC[C@](C)(O)CC7)c([N+](=O)[O-])c6)cc5F)CC4)C3)[C@H](c3ccccc3C(C)C)C2)c2c1OCO2 [compound 223, 2-((1H-pyrrolo[2,3-b]pyrid-5-yl)oxy)-5-fluoro-N-((4-((((1r, 4r)-4-hydroxy-4-methylcyclohexyl)methyl)amino)-3-nitrophenyl)sulfonyl)-4-(2-((R)-2-(2-isopropylphenyl)-4-((7-methoxybenzo[d][1,3]dioxycyclopent-4-yl)methyl)piperazin-1-yl)-7-azaspiro[3.5]non-7-yl)benzamide]
